One assay concerns the target KRAS Q61H (Homo sapiens, UniProt P01116+P62937, Q61H). The assay can be described thus: Disruption of BRAF RBD interaction with Ras (FRET / MOA assay, with Cyclophilin A). To be noted: KRAS Q61H; read-out: KRAS Q61H FRET data IC50. The assay is classed as biochemical. The procedure, abridged:
(§1)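 IC50 reflects compound-driven Ras:Cyclophilin A ternary complex displacing BRAF RBD, read as lowered TR-FRET ratio relative to DMSO after Eu anti-His (10 nM) and APC anti-GST (50 nM) detection for 1.5 h. Prior incubation 3 h, 25° C, with 12.5 nM GMPPNP-loaded Ras, 50 nM BRAF RBD, 25 μM Cyclophilin A; top compound 30 μM.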

The next assay addresses NRAS Q61K (Homo sapiens, UniProt P01111+P62937, Q61K). The description is as above. The assay is classed as biochemical. As to conditions: NRAS Q61K; read-out: NRAS Q61K FRET data IC50. The procedure, abridged: as §1
In another assay the target is NRAS Q61R (Homo sapiens, UniProt P01111+P62937, Q61R). Described as above. The assay is classed as biochemical. As to conditions: NRAS Q61R; read-out: NRAS Q61R FRET data IC50. The procedure, abridged: as §1
The subject of a further assay is NCI-H358 (K-Ras G12C). As to the kind of experiment: CellTiter-Glo cell viability assay, 5-day treatment. The assay is classed as cell-based. As to conditions: Homo sapiens, NCI-H358, H358, K-Ras G12C; read-out: Additional H358 Cell Viability assay data (K-Ras G12C, IC50). In a few lines: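 Compounds were dispensed directly onto seeded cells and incubated for 5 days, then plates were equilibrated to room temperature for about 30 minutes before luminescence reading. Signals were expressed as percent of the mean DMSO control and fitted with a four-parameter logistic curve.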
Background: ATP-based viability assays read luminescence as a measure of living cells.

NRAS Q61K, sequence (P01111 whole entry Q61K): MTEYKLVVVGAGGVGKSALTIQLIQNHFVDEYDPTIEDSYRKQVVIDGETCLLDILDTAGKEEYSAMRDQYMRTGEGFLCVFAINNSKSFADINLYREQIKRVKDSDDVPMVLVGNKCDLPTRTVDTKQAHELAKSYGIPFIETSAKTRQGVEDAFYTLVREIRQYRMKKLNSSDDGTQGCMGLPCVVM
NRAS Q61K, sequence (P62937 whole entry): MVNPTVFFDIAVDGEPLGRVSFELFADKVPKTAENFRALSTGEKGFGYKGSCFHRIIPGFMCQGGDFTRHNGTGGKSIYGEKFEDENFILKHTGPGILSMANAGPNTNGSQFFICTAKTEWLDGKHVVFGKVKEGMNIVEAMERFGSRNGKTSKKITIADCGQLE
KRAS Q61H, sequence (P01116 1-169 isoform P01116-2 Q61H limits assumed): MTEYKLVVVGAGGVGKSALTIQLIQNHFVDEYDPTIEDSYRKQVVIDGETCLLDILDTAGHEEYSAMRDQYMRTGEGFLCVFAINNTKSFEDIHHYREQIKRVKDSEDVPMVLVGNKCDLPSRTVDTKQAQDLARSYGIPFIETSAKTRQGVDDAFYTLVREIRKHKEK
KRAS Q61H, sequence (P62937 whole entry): as the sequence (P62937 whole entry) above
NRAS Q61R, sequence (P01111 whole entry Q61R): as the sequence (P01111 whole entry Q61K) above, with K61R counted along it
NRAS Q61R, sequence (P62937 whole entry): as the sequence (P62937 whole entry) above

For the compound `CCn1c(-c2cccnc2[C@H](C)OC)c2c3cc(ccc31)-c1cccc(c1)C[C@H](NC(=O)[C@H](C(C)C)N1CC[C@]3(CCN(C(=O)C#C[C@]4(N(C)C)CCOC4)C3)C1=O)C(=O)N1CCC[C@H](N1)C(=O)OCC(C)(C)C2` [Example A559], the IC50 is 100 to 1000 nM at KRAS Q61H, 1000 to 10000 nM on NRAS Q61K, 1000 to 10000 nM on NRAS Q61R and less than 10 nM in the assay with NCI-H358 (K-Ras G12C).
`C=CC(=O)N1CCOC2(CCN(C(=O)N(C)[C@H](C(=O)N[C@H]3CN4CCC=C(C4)c4ccc5c(c4)c(c(-c4cccnc4[C@H](C)OC)n5CC)CC(C)(C)COC(=O)[C@@H]4CCCN(N4)C3=O)C(C)C)CC2)C1` [Example A563]: the half-maximal inhibitory concentration (IC50) at KRAS Q61H was 1000 to 10000 nM; on NRAS Q61K it was 1000 to 10000 nM; on NRAS Q61R, more than 10000 nM; with NCI-H358 (K-Ras G12C), 100 to 1000 nM.
For the compound `CCn1c(-c2cccnc2[C@H](C)OC)c2c3cc(ccc31)-c1cccc(c1)C[C@H](NC(=O)[C@H](C(C)C)N1CC[C@]3(CCN(C(=O)C#C[C@@H]4COCCN4C4COC4)C3)C1=O)C(=O)N1CCC[C@H](N1)C(=O)OCC(C)(C)C2` [Example A565], the IC50 on KRAS Q61H was 1000 to 10000 nM; on NRAS Q61K, more than 10000 nM; on NRAS Q61R, more than 10000 nM; in the assay on NCI-H358 (K-Ras G12C), 10 to 100 nM.
On to `CCn1c(-c2cccnc2[C@H](C)OC)c2c3cc(ccc31)-c1cccc(c1)C[C@H](NC(=O)[C@@H](CN1CC[C@]3(CCN(C(=O)C#C[C@H]4COCCN4C)C3)C1=O)C(C)C)C(=O)N1CCCC(N1)C(=O)OCC(C)(C)C2` (stereo partly drawn) [Example A592], for which the IC50 at KRAS Q61H was 1000 to 10000 nM; on NRAS Q61K, more than 10000 nM; on NRAS Q61R, more than 10000 nM; with NCI-H358 (K-Ras G12C) it was less than 10 nM.
Take `C=CC(=O)N1CCO[C@@]2(CCN(C(=O)N(C)[C@H](C(=O)N[C@H]3Cc4nc(cs4)-c4ccc5c(c4)c(c(-c4cccnc4[C@H](C)OC)n5CC(F)(F)F)CC(C)(C)COC(=O)C4CCCN(N4)C3=O)C(C)C)C2)C1` (stereo partly drawn) [Example A594]: the IC50 is 10 to 100 nM at KRAS Q61H, 10 to 100 nM on NRAS Q61K, 10 to 100 nM on NRAS Q61R and less than 10 nM in the assay with NCI-H358 (K-Ras G12C).
Regarding `C=CC(=O)N1CCO[C@H]2CN(C(=O)N(C)[C@H](C(=O)N[C@H]3Cc4cccc(n4)-c4ccc5c(c4)c(c(-c4cccnc4[C@H](C)OC)n5CC(F)(F)F)CC(C)(C)COC(=O)C4CCCN(N4)C3=O)C(C)C)C[C@H]21` (stereo partly drawn) [Example A595], the IC50 was 100 to 1000 nM on KRAS Q61H, 100 to 1000 nM at NRAS Q61K, 100 to 1000 nM at NRAS Q61R and less than 10 nM in the assay with NCI-H358 (K-Ras G12C).
As for `C=CC(=O)N1CCC2(C1)CN(C(=O)N(C)[C@H](C(=O)N[C@H]1Cc3nc(cs3)-c3ccc4c(c3)c(c(-c3cccnc3[C@H](C)OC)n4CC(F)(F)F)CC(C)(C)COC(=O)C3CCCN(N3)C1=O)C(C)C)C2` (stereo partly drawn) [Example A603], the IC50 at KRAS Q61H, at NRAS Q61K, at NRAS Q61R and in the assay on NCI-H358 (K-Ras G12C) was 10 to 100 nM each time.
As to `C=CC(=O)N1CCOC2(CCN(C(=O)N(C)[C@H](C(=O)N[C@H]3Cc4cc(CF)cc(c4)-c4ccc5c(c4)c(c(-c4cccnc4[C@H](C)OC)n5CC(F)(F)F)CC(C)(C)COC(=O)C4CCCN(N4)C3=O)C(C)C)CC2)C1` (stereo partly drawn) [Example A605], the IC50 is 10 to 100 nM at KRAS Q61H, 100 to 1000 nM at NRAS Q61K, 100 to 1000 nM on NRAS Q61R and 10 to 100 nM in the assay on NCI-H358 (K-Ras G12C).
In the case of `C=CC(=O)N1CCOC2(CCN(C(=O)N(C)[C@H](C(=O)N[C@H]3Cc4nc(n(C)n4)-c4ccc5c(c4)c(c(-c4cccnc4[C@H](C)OC)n5CC(F)(F)F)CC(C)(C)COC(=O)C4CCCN(N4)C3=O)C(C)C)CC2)C1` (stereo partly drawn) [Example A606], the IC50 at KRAS Q61H was 10 to 100 nM; at NRAS Q61K, 100 to 1000 nM; on NRAS Q61R, 100 to 1000 nM; in the assay on NCI-H358 (K-Ras G12C), 100 to 1000 nM.
As to `C=CC(=O)N1CCOC2(CCN(C(=O)N(C)[C@H](C(=O)N[C@H]3Cc4cccc(c4)-c4ccc5c(c4)c(c(-c4cccnc4[C@H](C)OC)n5CC(F)(F)F)CC(C)(C)COC(=O)C4CCCN(N4)C3=O)C(C)C)CC2)C1` (stereo partly drawn) [Example A608], the IC50 is 10 to 100 nM at KRAS Q61H, 100 to 1000 nM on NRAS Q61K, 100 to 1000 nM on NRAS Q61R and 10 to 100 nM in the assay with NCI-H358 (K-Ras G12C).
`C=CC(=O)N1CCO[C@H]2CCN(C(=O)N(C)[C@H](C(=O)N[C@H]3Cc4nc(cs4)-c4ccc5c(c4)c(c(-c4cccnc4[C@H](C)OC)n5CC)CC(C)(C)COC(=O)C4CCCN(N4)C3=O)C(C)C)C[C@@H]21` (stereo partly drawn) [Example A609]: the IC50 at KRAS Q61H is 10 to 100 nM; at NRAS Q61K, 10 to 100 nM; on NRAS Q61R it was 10 to 100 nM; with NCI-H358 (K-Ras G12C) it was less than 10 nM.
For `C=CC(=O)N1CCO[C@H]2CN(C(=O)N(C)[C@H](C(=O)N[C@H]3Cc4cccc(c4)-c4ccc5c(c4)c(c(-c4cccnc4[C@H](C)OC)n5CC)CC(C)(C)COC(=O)C4CCCN(N4)C3=O)C(C)C)C[C@H]21` (stereo partly drawn) [Example A610], the IC50 was 100 to 1000 nM at KRAS Q61H, 100 to 1000 nM on NRAS Q61K, 100 to 1000 nM on NRAS Q61R and less than 10 nM in the assay on NCI-H358 (K-Ras G12C).

The IC50 is the concentration at which inhibition is half-maximal.

(Values after US20230233569A1 (Revolution Medicines, Inc., priority 2020, published 2023).)
